The values below come from article PMC8164802, “Biological evaluation of Safrole oil and Safrole oil Nanoemulgel as antioxidant, antidiabetic, antibacterial, antifungal and anticancer” (BMC Complementary Medicine and Therapies, 2021).

pIC50: −log10 of the molar value.

In this assay the target is T1, porcine pancreatic α-amylase (Sus scrofa, UniProt P00690).
T1 construct: gene AMY2
The experiment in a line: DNSA colorimetric assay of starch hydrolysis, […] nm. It counts as biochemical.

T1 sequence (P00690 16-511): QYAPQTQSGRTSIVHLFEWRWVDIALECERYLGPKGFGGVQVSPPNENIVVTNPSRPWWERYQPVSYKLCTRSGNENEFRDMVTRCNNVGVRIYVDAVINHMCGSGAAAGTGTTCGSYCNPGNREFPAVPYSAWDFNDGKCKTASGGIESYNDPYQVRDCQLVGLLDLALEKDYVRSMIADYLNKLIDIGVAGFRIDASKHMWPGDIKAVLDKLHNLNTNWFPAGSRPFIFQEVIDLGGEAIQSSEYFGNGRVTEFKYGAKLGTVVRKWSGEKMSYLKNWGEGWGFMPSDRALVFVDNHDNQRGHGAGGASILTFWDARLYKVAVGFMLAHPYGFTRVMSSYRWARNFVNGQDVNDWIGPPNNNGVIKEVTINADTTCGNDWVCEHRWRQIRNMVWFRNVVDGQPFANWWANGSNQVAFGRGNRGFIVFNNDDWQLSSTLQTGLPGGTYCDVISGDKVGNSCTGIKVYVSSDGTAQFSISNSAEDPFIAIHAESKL

`C=CCc1ccc2c(c1)OCO2` [Safrole, 1-allyl-3,4-methylenedioxybenzene] gave a pIC50 of 4.15.
